Where a SMILES comes first, the peptide text is derived from it.
Experiments:
A. aegypti PK2-R = target: T1, A. aegypti PK2-R (Aedes aegypti, UniProt V9P4J1); experiment: Heterologous functional receptor assay (aequorin bioluminescence), PK2-R; type: cell-based; conditions: for EC50: CHO-K1 cells transiently expressing PK2-R and aequorin, luminescence normalized to 50 μM ATP, two biological replicates, 4-8 technical replicates each, read-out: EC50, activation of A. aegypti PK2-R
T1 sequence (V9P4J1 1-638): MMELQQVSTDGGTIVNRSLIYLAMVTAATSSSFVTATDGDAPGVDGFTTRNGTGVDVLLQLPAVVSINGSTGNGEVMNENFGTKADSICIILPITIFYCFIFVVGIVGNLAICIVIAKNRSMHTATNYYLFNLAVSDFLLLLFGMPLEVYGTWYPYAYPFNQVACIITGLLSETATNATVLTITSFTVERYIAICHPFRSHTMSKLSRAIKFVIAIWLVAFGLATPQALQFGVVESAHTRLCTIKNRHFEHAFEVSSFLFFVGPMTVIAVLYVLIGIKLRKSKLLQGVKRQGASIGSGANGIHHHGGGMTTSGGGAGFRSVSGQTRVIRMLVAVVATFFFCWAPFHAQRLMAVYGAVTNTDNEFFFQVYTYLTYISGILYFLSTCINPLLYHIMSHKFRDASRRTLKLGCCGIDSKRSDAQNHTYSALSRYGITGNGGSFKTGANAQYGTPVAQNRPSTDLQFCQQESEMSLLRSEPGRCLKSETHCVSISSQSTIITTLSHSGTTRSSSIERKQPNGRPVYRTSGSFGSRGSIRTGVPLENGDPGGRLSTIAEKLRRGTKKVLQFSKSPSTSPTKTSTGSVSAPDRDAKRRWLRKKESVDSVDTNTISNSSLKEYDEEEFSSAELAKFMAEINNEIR
Description: The complete open reading frame was amplified based on the partial ([Nene et al., 2007]) and complete sequences ([Choi et al., 2013]) reported earlier for the A. aegypti PK1-R (Genbank accession: EAT35008.1) and PK2-R (Genbank accession: KC155994.1). Forward 5′-[…]-3′ (PK1-R) or 5′-[…]-3′ (PK2-R) and reverse 5′-[…]-3′ (PK1-R) or 5′-[…]-3′ (PK2-R) primers were designed over the start and stop codons (underlined), respectively, and used to amplify the complete coding sequence using Q5 High-Fidelity DNA polymerase following manufacturer recommendations (New England Biolabs, Whitby, ON). […] The resulting products were cloned into pGEM-T Easy sequencing vector, and miniprep samples were sequenced to verify base accuracy. The receptor constructs were excised using standard restriction enzyme digestion and subcloned into the mammalian expression vector, pcDNA 3.1^+ (Life Technologies, Burlington, ON, Canada). Transfection quality plasmid DNA was purified from an overnight bacterial culture using the PureLink MidiPrep Kit (Invitrogen, Burlington, ON, Canada) following manufacturer guidelines.
Chinese hamster ovary cells (CHO-K1) described previously ([Paluzzi et al., 2012]; [Gondalia et al., 2016]; [Wahedi and Paluzzi, 2018]) were grown in Dulbecco’s modified eagles medium: nutrient F12 (DMEM:F12) media containing 10% heat-inactivated fetal bovine serum (FBS; Wisent, St. Bruno, QC, Canada), 200 μg/mL geneticin, and antimycotic-antibiotic mixture as described previously ([Wahedi and Paluzzi, 2018]). […] Various concentrations of synthesized PK peptides and other peptides (purity > 90%; Genscript, Piscataway, NJ, United States) were prepared in BSA media and loaded in quadruplicate into white 96-well luminescence plates (Greiner Bio-One, Germany).
Luminescence responses to A. aegypti CAPA-1 (GPTVGLFAFPRV-NH2), CAPA-2 (pQGLVPFPRV-NH2) and CAPA-PK1 (AGNSGANSGMWFGPRL-NH2) peptides, along with the R. prolixus PK2 orthologs, PK2a (NTVNFSPRL-NH2), and PK2b (SPPFAPRL-NH2) were examined. A list of peptides used in this study and sequence comparison to native A. aegypti pyrokinin peptides is found in Supplementary Table S1. Cells prepared for the functional assay were loaded into each well of the plate using an automated injector unit and luminescent response was measured with a Synergy 2 Multi-Mode Microplate Reader (BioTek, Winooski, VT, United States). Negative controls were carried out using BSA media alone whereas 50 μM ATP, which activates endogenously expressed purinoceptors ([Iredale and Hill, 1993]; [Michel et al., 1998]), was used as a positive control. Luminescence responses were normalized to ATP responses and analyzed in GraphPad Prism 7.02 (GraphPad Software, San Diego, CA, United States). EC50 values were determined using dose-response curves from multiple biological replicates.

[1] = system: isolated ilea of female A. aegypti; experiment: Ileal motility assay (video recordings); parameters: species or system Aedes aegypti; conditions: Figure 7, 1 μM, RhoprMIP-7 added together with 1 μM RhoprPK2b, mean of 17 preparations
Description: Hindgut contraction assays were conducted on isolated […] of female A. aegypti. […] The isolated tissue was secured with minutien pins within a Sylgard-lined petri-dish. Given its high sequence similarity to endogenous A. aegypti PK2 peptides (Supplementary Table S1), we used the R. prolixus PK2b peptide ([Paluzzi and O'Donnell, 2012]), henceforth referred to as RhoprPK2b, for motility bioassays. Commercially synthesized peptides (Genscript, Piscataway, NJ, United States), […] ([…]) and RhoprPK2[…]), were used to examine myomodulatory activity. Serotonin (5-hydroxytryptamine, 5-HT; Sigma-Aldrich, Oakville, ON, Canada), previously shown to stimulate A. aegypti hindgut contractions ([Messer and Brown, 1995]), was used as a stimulatory control. Given the inhibitory properties of myoinhibitory peptides (having the consensus W(X6)W-NH2 carboxyl terminus) on insect hindgut motility ([Lange et al., 2012]), RhoprMIP-7 ([…]; Genscript, Piscataway, NJ, United States; [Paluzzi et al., 2015]) was used as an inhibitory control. […] Unlike the rectum, the mosquito ileum produces weaker contractions that we were unable to measure using an impedance converter as described above. […] The dissected gut was pinned in the midgut and rectum to allow the ileum to freely contract in saline and following treatments. Contractions were recorded for 2 min in saline that was used for baseline activity measurements, followed by three subsequent 2-min recordings, including: […] The RhoprPK2b was added along with the stimulatory or inhibitory compound (5-HT or RhoprMIP-7, respectively), to maintain its 1 μM concentration in the bath. […] To account for any potential changes in tissue contractile activity upon adding solutions to the bath, each of these variables were measured relative to baseline saline recordings of the same preparation as a ratio of change, where a value above or below one indicates an increase or a decrease, (respectively), in the rate, duration or length between each contraction in response to the treatment.

[2] = system: rectal pad epithelia of female A. aegypti; experiment: Scanning ion-selective electrode technique (SIET), Na+ flux; parameters: species or system Aedes aegypti
Description: Female mosquitoes were anesthetized on ice for 3 min and dissected in Ca^2+-free A. aegypti saline, as described previously ([Paluzzi et al., 2014]), to limit spontaneous hindgut contractions during ion flux measurements. The isolated rectum was then transferred to a Petri dish with saline, pre-coated with poly-L-lysine ([Paluzzi et al., 2014]) to allow the tissue to adhere to the bottom of the dish.
AedaeCAPA-PK1 or D. melanogaster Droso-leucokinin (NSVVLGKKQRFHSWG-NH2, Genscript, Piscataway, NJ, United States; provided by Prof. Dick Nässel, Stockholm University, Sweden) were solubilized in double distilled water as a 1 mM stock and then diluted in the above-mentioned Ca^2+-free A. aegypti saline to achieve a 1 μM final concentration. Control measurements were obtained by applying an equal volume of saline only, referred to as saline control treatments. […]
SIET measurements were obtained through the Automated Scanning Electrode Technique (ASET) software (Science Wares, East Falmouth, MA, United States). […] Voltage gradients were measured as the microelectrode moved perpendicularly to the tissue surface between two points separated by a distance of 100 μm. […] Following background voltage readings, the ion-selective microelectrode tip was positioned at a distance of 2 μm from the rectal pad epithelia. […] Following measurements at the rectal pad sites, background voltage readings were again recorded at a distance of 3 mm away from the tissue.
Calculation of ion flux used in this study has been described previously ([Paluzzi et al., 2014]). […] The change in flux upon treatment application was calculated by subtracting flux values obtained during saline measurements, in which a positive change indicates increased ion absorption, and a negative change represents a decrease in absorption.

CC(C)C[C@H](NC(=O)CNC(=O)[C@@H](NC(=O)[C@@H](NC(=O)[C@@H]1CCCN1C(=O)CN)[C@@H](C)O)C(C)C)C(=O)N[C@@H](Cc1ccccc1)C(=O)N[C@@H](C)C(=O)N[C@@H](Cc1ccccc1)C(=O)N1CCC[C@H]1C(=O)N[C@@H](CCCNC(=N)N)C(=O)N[C@H](C(N)=O)C(C)C [AedaeCAPA-1] (H-GPTVGLFAFPRV-NH2)
activation of PK2-R relative to the highly potent pyrokinins (A. aegypti PK2-R; CHO-K1 cells expressing PK2-R, very high concentrations): ≤ 25%

CSCC[C@H](NC(=O)CNC(=O)[C@H](CO)NC(=O)[C@H](CC(N)=O)NC(=O)[C@H](C)NC(=O)CNC(=O)[C@H](CO)NC(=O)[C@H](CC(N)=O)NC(=O)CNC(=O)[C@H](C)N)C(=O)N[C@@H](Cc1c[nH]c2ccccc12)C(=O)N[C@@H](Cc1ccccc1)C(=O)NCC(=O)N1CCC[C@H]1C(=O)N[C@@H](CCCNC(=N)N)C(=O)N[C@@H](CC(C)C)C(N)=O [AedaeCAPA-PK1] (H-AGNSGANSGMWFGPRL-NH2)
EC50 (A. aegypti PK2-R): 158 nM

CC(C)C[C@H](NC(=O)[C@H](CCCNC(=N)N)NC(=O)[C@@H]1CCCN1C(=O)[C@H](CO)NC(=O)[C@H](Cc1ccccc1)NC(=O)[C@H](CC(N)=O)NC(=O)[C@@H](NC(=O)[C@@H](NC(=O)[C@@H](N)CC(N)=O)[C@@H](C)O)C(C)C)C(N)=O [RhoprPK2a] (H-NTVNFSPRL-NH2)
EC50 (A. aegypti PK2-R): 17.5 nM

CC(C)C[C@H](NC(=O)[C@H](CCCNC(=N)N)NC(=O)[C@@H]1CCCN1C(=O)[C@H](C)NC(=O)[C@H](Cc1ccccc1)NC(=O)[C@@H]1CCCN1C(=O)[C@@H]1CCCN1C(=O)[C@@H](N)CO)C(N)=O [RhoprPK2b] (H-SPPFAPRL-NH2)
EC50 (A. aegypti PK2-R): 8.54 nM

AWNSLHGGW-NH2 [RhoprMIP-7]
duration of each ileal contraction relative to baseline [1]: about 1.9 fold
ileal contraction frequency relative to baseline [1]: 0.38 fold
relaxation duration (length of time between ileal contractions) relative to baseline [1]: 3.9 fold

NSVVLGKKQRFHSWG-NH2 [Droso-leucokinin, D. melanogaster kinin analog used in Na+ transport measurements]
decrease in Na+ absorption across rectal pad epithelia relative to initial transport in saline ([2]; 1 μM in Ca2+-free saline, absorptive female recta only, mean ± SEM of 10 to 14 preparations, SEM): 201.6 ± 39.0 pmol cm^–2 s^–1
fold decrease in Na+ absorption compared to saline control ([2]; 1 μM, female rectal pad epithelia): four-fold decrease
significance of change in Na+ transport versus saline alone ([2]; 1 μM, one-way ANOVA and Tukey's post hoc test): significant

Source: article PMC7255104, “Receptor Characterization and Functional Activity of Pyrokinins on the Hindgut in the Adult Mosquito, Aedes aegypti” (Frontiers in Physiology, 2020)
